Measured values: US20100035866A1, “NOVEL SUBSTITUTED-1, 1-DIOXO-BENZO[1,2,4]THIADIAZIN-3ONES, PREPARATION METHOD THEREOF, AND PHARMACEUTICAL COMPOSITION CONTAINING THE SAME” (KOREA RESEARCH INSTITUTE OF CHEMICAL TECHNOLOGY, priority 2006, published 2010)

Tests used:
[1] = molecular target: Human serotonin 5-HT6 receptor (Homo sapiens, UniProt P50406); test: [3H]LSD binding assay on cloned 5-HT6 receptor; settings: IC50 (nM), binding affinity to the 5-HT6 receptor, Table 2; 1.87 nM [3H]LSD, cloned human receptor membranes from Sf21 cells, 37° C. 60 min
Sequence of Human serotonin 5-HT6 receptor (P50406 whole entry): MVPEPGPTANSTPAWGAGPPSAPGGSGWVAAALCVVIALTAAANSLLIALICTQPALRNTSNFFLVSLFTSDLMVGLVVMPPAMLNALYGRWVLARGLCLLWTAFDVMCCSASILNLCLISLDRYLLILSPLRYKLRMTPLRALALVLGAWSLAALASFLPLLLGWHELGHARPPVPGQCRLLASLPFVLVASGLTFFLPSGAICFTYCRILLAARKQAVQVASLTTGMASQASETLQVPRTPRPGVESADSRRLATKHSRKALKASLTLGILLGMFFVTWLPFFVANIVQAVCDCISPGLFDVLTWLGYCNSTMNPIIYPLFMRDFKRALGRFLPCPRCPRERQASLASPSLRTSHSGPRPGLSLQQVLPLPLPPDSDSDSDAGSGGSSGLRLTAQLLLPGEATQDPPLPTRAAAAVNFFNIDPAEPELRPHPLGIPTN

| melting point [°C] | IC50 [1] [nM] | Structure (SMILES) |
| --- | --- | --- |
| 151 to 152 | 6.9 | CN1CCN(c2cc(Cl)cc3c2S(=O)(=O)N(CCc2ccccc2)C(=O)N3Cc2ccccc2)CC1 [Example 37, 4-Benzyl-6-chloro-8-(4-methyl-piperazin-1-yl)-1,1-dioxo-2-phenethyl-1,4-dihydro-2H-1λ^6-benzo[1,2,4]thiadiazin-3-one] |
| 136 to 139 | 8.4 | COC(=O)c1ccc(CN2C(=O)N(Cc3ccccc3)c3cc(Cl)cc(N4CCNCC4)c3S2(=O)=O)cc1 [Example 56, 4-(4-Benzyl-6-chloro-1,1,3-trioxo-8-piperazin-1-yl-3,4-dihydro-1H-1λ^6-benzo[1,2,4]thiadiazin-2-ylmethyl)-benzoic acid methyl ester] |
| 135 to 137 | 18 | N#Cc1ccc(CN2C(=O)N(Cc3ccccc3)c3cc(Cl)cc(N4CCNCC4)c3S2(=O)=O)cc1 [Example 57, 4-(4-Benzyl-6-chloro-1,1,3-trioxo-8-piperazin-1-yl-3,4-dihydro-1H-1λ^6-benzo[1,2,4]thiadiazin-2-ylmethyl)-benzonitrile] |
| 155 to 156 | 28 | COc1ccc(N2C(=O)N(Cc3ccccc3)c3cc(Cl)cc(N4CCNCC4)c3S2(=O)=O)cc1 [Example 63, 4-Benzyl-6-chloro-2-(4-methoxy-phenyl)-1,1-dioxo-8-piperazin-1-yl-1,4-dihydro-2H-1λ^6-benzo[1,2,4]thiadiazin-3-one] |
| 171 to 172 | > 1000 | O=C1N(Cc2ccccc2)c2cc(Cl)cc(N3CCOCC3)c2S(=O)(=O)N1Cc1ccccc1Cl [Example 69, 4-Benzyl-6-chloro-2-(2-chloro-benzyl)-8-morpholin-4-yl-1,1-dioxo-1,4-dihydro-2H-1λ^6-benzo[1,2,4]thiadiazin-3-one] |
| 159 to 161 | > 1000 | O=C1N(Cc2ccccc2)c2cc(Cl)cc(N3CCN(c4ccccn4)CC3)c2S(=O)(=O)N1Cc1ccccc1Cl [Example 70, 4-Benzyl-6-chloro-2-(2-chloro-benzyl)-1,1-dioxo-8-(4-pyridin-2-yl-piperazin-1-yl)-1,4-dihydro-2H-1λ^6-benzo[1,2,4]thiadiazin-3-one] |
| 157 to 159 | 396 | O=C1N(Cc2ccccc2)c2cc(Cl)cc(N3CCN4CCCC[C@@H]4C3)c2S(=O)(=O)N1Cc1ccccc1Cl [Example 75, 4-Benzyl-6-chloro-2-(2-chloro-benzyl)-8-[(6R)-1,4-diazabicyclo[4.4.0]dec-4-yl]-1,1-dioxo-1,4-dihydro-2H-1λ^6-benzo[1,2,4]thiadiazin-3-one] |

Further lines, the molecule ahead of its results:

| Structure (SMILES) | melting point [°C] | IC50 [1] [nM] |
| --- | --- | --- |
| CN1CCN(c2cc(Cl)cc3c2S(=O)(=O)N(Cc2ccncc2)C(=O)N3Cc2ccccc2)CC1 [Example 42, 4-Benzyl-6-chloro-8-(4-methyl-piperazin-1-yl)-1,1-dioxo-2-pyridin-4-ylmethyl-1,4-dihydro-2H-1λ^6-benzo[1,2,4]thiadiazin-3-one] | 107 to 108 | 7.7 |
| Cc1ccc(CN2C(=O)N(Cc3ccccc3)c3cc(Cl)cc(N4CCN(C)CC4)c3S2(=O)=O)o1 [Example 43, 4-Benzyl-6-chloro-2-(5-methyl-furan-2-ylmethyl)-8-(4-methyl-piperazin-1-yl)-1,1-dioxo-1,4-dihydro-2H-1λ^6-benzo[1,2,4]thiadiazin-3-one] | 130 to 131 | 75.9 |
| O=C1N(Cc2ccccc2)c2cc(Cl)cc(N3CCNCC3)c2S(=O)(=O)N1Cc1ccccc1F [Example 45, 4-Benzyl-6-chloro-2-(2-fluoro-benzyl)-1,1-dioxo-8-piperazin-1-yl-1,4-dihydro-2H-1λ^6-benzo[1,2,4]thiadiazin-3-one] | 120 to 121 | 18.7 |
| O=C1N(Cc2ccccc2)c2cc(Cl)cc(N3CCNCC3)c2S(=O)(=O)N1Cc1ccccc1Cl [Example 47, 4-Benzyl-6-chloro-2-(2-chloro-benzyl)-1,1-dioxo-8-piperazin-1-yl-1,4-dihydro-2H-1λ^6-benzo[1,2,4]thiadiazin-3-one] | 126 to 127 | 15.9 |
| O=C1N(Cc2ccccc2)c2cc(Cl)cc(N3CCNCC3)c2S(=O)(=O)N1Cc1ccccc1Br [Example 48, 4-Benzyl-2-(2-bromo-benzyl)-6-chloro-1,1-dioxo-8-piperazin-1-yl-1,4-dihydro-2H-1λ^6-benzo[1,2,4]thiadiazin-3-one] | 144 to 145 | 46 |
| O=C1N(Cc2ccccc2)c2cc(Cl)cc(N3CCNCC3)c2S(=O)(=O)N1Cc1ccc(I)cc1 [Example 49, 4-Benzyl-6-chloro-2-(4-iodo-benzyl)-1,1-dioxo-8-piperazin-1-yl-1,4-dihydro-2H-1λ^6-benzo[1,2,4]thiadiazin-3-one] | 153 to 154 | 17.1 |
| Cc1ccccc1CN1C(=O)N(Cc2ccccc2)c2cc(Cl)cc(N3CCNCC3)c2S1(=O)=O [Example 50, 4-Benzyl-6-chloro-2-(2-methyl-benzyl)-1,1-dioxo-8-piperazin-1-yl-1,4-dihydro-2H-1λ^6-benzo[1,2,4]thiadiazin-3-one] | 70 to 72 | 22.2 |
| COc1ccccc1CN1C(=O)N(Cc2ccccc2)c2cc(Cl)cc(N3CCNCC3)c2S1(=O)=O [Example 51, 4-Benzyl-6-chloro-2-(2-methoxy-benzyl)-1,1-dioxo-8-piperazin-1-yl-1,4-dihydro-2H-1λ^6-benzo[1,2,4]thiadiazin-3-one] | 129 to 130 | 48.9 |
| O=C1N(Cc2ccccc2)c2cc(Cl)cc(N3CCNCC3)c2S(=O)(=O)N1Cc1ccccc1[N+](=O)[O-] [Example 55, 4-Benzyl-6-chloro-2-(2-nitro-benzyl)-1,1-dioxo-8-piperazin-1-yl-1,4-dihydro-2H-1λ^6-benzo[1,2,4]thiadiazin-3-one] | 134 to 135 | 33 |
| O=C1N(Cc2ccccc2)c2cc(Cl)cc(N3CCNCC3)c2S(=O)(=O)N1c1ccccc1 [Example 60, 4-Benzyl-6-chloro-1,1-dioxo-2-phenyl-8-piperazin-1-yl-1,4-dihydro-2H-1λ^6-benzo[1,2,4]thiadiazin-3-one] | 275 to 277 | 15.5 |
| COc1ccccc1N1C(=O)N(Cc2ccccc2)c2cc(Cl)cc(N3CCNCC3)c2S1(=O)=O [Example 61, 4-Benzyl-6-chloro-2-(2-methoxy-phenyl)-1,1-dioxo-8-piperazin-1-yl-1,4-dihydro-2H-1λ^6-benzo[1,2,4]thiadiazin-3-one] | 175 to 176 | 50.7 |
| CCN1C(=O)N(Cc2ccccc2)c2cc(Cl)cc(N3CCNCC3)c2S1(=O)=O [Example 64, 4-Benzyl-6-chloro-2-ethyl-1,1-dioxo-8-piperazin-1-yl-1,4-dihydro-2H-1λ^6-benzo[1,2,4]thiadiazin-3-one] | 158 to 161 | 4.6 |
| O=C1N(Cc2ccccc2)c2cc(Cl)cc(N3CCNCC3)c2S(=O)(=O)N1Cc1cccc2ccccc12 [Example 68, 4-Benzyl-6-chloro-2-naphthalen-1-ylmethyl-1,1-dioxo-8-piperazin-1-yl-1,4-dihydro-2H-1λ^6-benzo[1,2,4]thiadiazin-3-one] | 164 to 166 | 6.9 |
| C[C@@H]1CN(c2cc(Cl)cc3c2S(=O)(=O)N(Cc2ccccc2Cl)C(=O)N3Cc2ccccc2)CCN1 [Example 71, 4-Benzyl-6-chloro-2-(2-chloro-benzyl)-8-[(R)-3-methyl-piperazin-1-yl]-1,1-dioxo-1,4-dihydro-2H-1λ^6-benzo[1,2,4]thiadiazin-3-one] | 134 to 136 | 147 |
| C[C@H]1CN(c2cc(Cl)cc3c2S(=O)(=O)N(Cc2ccccc2Cl)C(=O)N3Cc2ccccc2)CCN1 [Example 72, 4-Benzyl-6-chloro-2-(2-chloro-benzyl)-8-[(S)-3-methyl-piperazin-1-yl]-1,1-dioxo-1,4-dihydro-2H-1λ^6-benzo[1,2,4]thiadiazin-3-one] | 142 to 143 | 6.8 |
| O=C1N(Cc2ccccc2)c2cc(Cl)cc(N3CCN4CCC[C@H]4C3)c2S(=O)(=O)N1Cc1ccccc1Cl [Example 73, 4-Benzyl-6-chloro-2-(2-chloro-benzyl)-8-[(6S)-1,4-diazabicyclo[4.3.0]non-4-yl]-1,1-dioxo-1,4-dihydro-2H-1λ^6-benzo[1,2,4]thiadiazin-3-one] | 143 to 144 | 16 |
